The values below come from patent publication US4959182A, “Method and compositions providing enhanced chemiluminescence from 1,2-dioxetanes” (priority 1989, dated 1990).

One series has as its system S-antigen. Kind of series: Chemiluminescent ELISA for S-antigen with dioxetane 2c and alkaline phosphatase conjugate. The text has this:
4. Chemiluminescent Enzyme-Linked Assays. Enzymatic triggering of appropriately substituted dioxetanes provides an ultrasensitive detection method for enzyme-linked biological assays. For example, phosphate-substituted dioxetane 2c can be used with enzyme linked immunoassays and DNA probes that utilize alkaline phosphatase as the marker for detection. Previous detection methods make use of substrates which develop a color or become fluorescent upon reaction with this enzyme. The sensitivity of the chemiluminescent technique with dioxetane 2c is illustrated by an enzyme-linked immunosorbant assay (ELISA) for the retinal protein, S-antigen. Using procedures of L. A. Donoso (L. A. Donoso, C. F. Merryman, K. E. Edelberg, R. Naids, and C. Kalsow, Investigative Ophthalmology & Visual Science, 26, 561 (1985)), a series of 7 Immulon™ wells were coated with varying amounts of S-antigen (112, 56, 28, 14, 7, 3, 1.3 ng), reacted with a monoclonal antibody (MAbA9-C6) developed in mouse, and finally reacted with anti-mouse IgG coupled to alkaline phosphatase. A chemiluminescence assay of each well was then conducted individually by adding 100 μL of 221 buffer (0.75 M, pH 9.1) containing Mg(OAc)2 (8.0×10^-4 M), CTAB (1.13×10^-3 M), and fluorescein surfactant 3 (5.6×10^-5 M). […] The reagent background luminescence is very low and constant at 15 - 20 counts/sec (FIG. 13). […] Following the experiments with the luminometer, the wells containing the same solution were subsequently used for a photographic detection experiment (FIG. 15). The 7 wells were placed in a holder and incubated for 30 minutes at 37° C. and then photographed at that temperature with ASA 3000 Polaroid™Type 57 film for 15 min in a light-tight incubator. […] The reproducibility of the photographic assay is illustrated in FIG. 16. Four wells coated with 50 ng of antigen were treated with buffer and dioxetane as above, incubated for 1 hour at 45° C., and then photographed with the film for 30 sec at that temperature.
(An ELISA detects its analyte on a solid surface through an enzyme-linked reagent.)

The subject of series [1] is Alkaline Phosphatase from Human Blood Serum. Kind of series: Triggering the chemiluminescence of 2c with alkaline phosphatase from human blood serum. It is filed as biochemical. As to the method: 1. Triggering the Chemiluminescence of 2c with Alkaline Phosphatase from Human Blood Serum. A stock solution of dioxetane 2c was prepared in dioxane/water (1:1 v/v) by photooxygenation of 1c. A sample of fresh blood was drawn from a healthy donor and the red blood cells removed by centrifugation to provide serum for the experiments. Treatment of 3 mL of a 10^-5 M solution of 2c in 0.75 M 2-amino-2-methyl-1-propanol (221) buffer (pH 10.3) at 37° C. with 100 μL of serum led to the typical intensity vs. time profile shown in FIG. 3 where the serum is injected at time zero. Under these conditions the light intensity reaches a constant level of approximately 2.3×10^4 counts/sec. The background luminescence signal from non-enzymatic hydrolysis of 2c is less than 0.05% of the enzyme-generated value. […] The light intensity at any other time point can also be conveniently used to provide a direct measure of the enzyme concentration (FIG. 5). [drawing 31]

Series [2] is classed as physicochemical. To be noted: for half-life: in xylene, read-out: t1/2 at 25° C. (converted); for half-life / k(sec^-1) at 25° C.: 25° C. The protocol: Rates for thermal decomposition of the stable dioxetanes were monitored by the decay of chemiluminescence of aerated solutions. A cylindrical Pyrex vial equipped with magnetic stir bar was filled with 3-4 mL of the reaction solvent, sealed with a Teflon-lined screw cap and placed in the thermostatted sample block of the chemiluminescence-measuring luminometer. Temperature control was provided by an external circulating water bath. Appropriate values for the instrument gain and optical slit size were selected. […]. The vial was sealed with a Teflon-lined screw cap to prevent evaporation when high temperatures were used. Measurement of the signal was begun by opening the shutter. The chemiluminescent decay was generally recorded for at least three half-lives. Calculation of the first-order rate constant (k) from the In (Intensity) vs. time data was performed by a computer program utilizing a standard least-squares treatment. The correlation coefficient (r) was typically at least 0.999 and k varied less than 5% between replicate samples.
Activation parameters for decomposition of the dioxetanes were calculated from plots of In k vs. 1/T (Arrhenius eq.) or In k/t vs. 1/T (Eyring eq.) by a standard least-squares linear regression analysis.
Activation Energies for Thermal Decomposition of Dioxetanes

For series [3], the system named is Alkaline Phosphatase from Bovine Intestinal Mucosa. Kind of series: Triggering the chemiluminescence of 2c with alkaline phosphatase from bovine intestinal mucosa. It is filed as biochemical. As to the method:
(§1) The same procedure as those employed in the measurement of the decay kinetics was used for the determination of chemiluminescence quantum yields with the following modifications. An accurately measured aliquot of a dioxetane stock solution of known concentration was added to 3 mL of the pre-thermostatted organic solvent or aqueous buffer. The reaction was then triggered by adding the appropriate chemical reagent or enzyme. The total light intensity was integrated by a photon-counting luminometer using an RCA A-31034A gallium-arsenide PMT cooled to -78° C.
2. Triggering the Chemiluminescence of 2c with Alkaline Phosphatase from Bovine Intestinal Mucosa. Alkaline phosphatase from bovine intestinal mucosa was obtained from Sigma Chemical Co. as a suspension of 5.1 mg of protein per mL of 3.2 M (NH4)2 SO4 solution. […] 3. Triggering the Chemiluminescence of 2c with Alkaline Phosphatase: Enhanced Chemiluminescence Efficiency via Intermolecular Energy Transfer in Aqueous Micelles. […] Alkaline phosphatase experiments with dioxetane 2c were conducted at 37° C. with 3 mL of a solution containing: 2c (4.3×10^-5 M), 221 buffer (0.75 M, pH 9.1), Mg(OAc)2 (8.0×10^-4 M), CTAB (1.13×10^-3 M), and fluorescein surfactant 3 (5.6×10^-5 M).
To test the sensitivity of this chemiluminescence method for evaluating concentrations of alkaline phosphatase in solution, a series of experiments were carried out using enzyme stock solutions prepared by dilutions of the commercial sample obtained from Sigma. A conservative estimate of the concentration of phosphatase in the sample was made by assuming that the 5.1 mg of protein per mL in the sample was 100% pure alkaline phosphatase. A molecular weight of 140,000 as also used in calculating molar amounts of enzyme. The conditions were the same as described above with 2c, CTAB, and fluorescer 3 except that the final quantities of enzyme in the 3 mL solutions were:
Enzymatic triggering experiments such as those described above were also carried out in Immumlon™ microtitre wells from Dynatech, Inc. made of transparent polystyrene. The wells were used individually and placed in a light-tight holder which could be thermostatted. The chemiluminescence was detected at the bottom of the well using a fiber optic connected to the photon-counting luminometer described previously. This experimental set-up allowed much smaller reaction volumes to be used. For example, a series of experiments using dioxetane 2c, CTAB, and 3 in 200 μL of 221 buffer with amounts of alkaline phosphatase ranging from 5×10^-15 to 2×10^-18 moles (or 2 attomoles) were carried out. […] A more realistic assumption for the purity of the enzyme sample might be 10%.

For series [4] the following is noted: aryloxide form, 25° C.
A short description of series [5]: Base-triggered chemiluminescence of dioxetanes 2a/2b in DMSO, water, CTAB micelles and micelles with fluorescent co-surfactant.
Text: The chemiluminescence quantum yield (.PHI.CL) for the decomposition of dioxetanes is defined as the ratio of einsteins of chemiluminescence emitted to moles of dioxetane decomposed. Sufficient energy is released during the reaction from the reaction enthalpy (ΔHR) plus the Arrhenius activation energy (Ea) to populate the singlet excited state of one of the carbonyl cleavage products. Therefore, the maximum quantum yield is 1.0. Another parameter of interest is the chemiexcitation quantum yield (.PHI.CE) which is defined as the ratio of excited states formed to dioxetane decomposed. The chemiexcitation quantum yield is related to the chemiluminescence quantum yield via the fluorescence quantum yield of the dioxetane cleavage (.PHI.F) through the equation: .phi.CL =.phi.CE X .phi.F.
as §1
Spectra of the chemiluminescence from chemically or enzymatcally triggered dioxetanes were obtained by conducting the reaction in a 1-cm square quartz cuvette in the sample compartment of a Spex Fluorolog spectrofluorometer at ambient temperature. Correction for the decay of the chemiluminescence intensity during the wavelength scan was made by accumulating the spectrum in a ratio mode so that the observed spectrum was divided by the signal from an auxiliary detector (EMI 9781B) which measures the total signal as a function of time. The monochromator bandpass was typically 18 nm. For weakly emitting samples, several identical scans were performed and added together to improve the signal-to-noise ratio.
1. Triggering the Chemiluminescence of Hydroxy-Substituted Dioxetane 2a with Base.
2. […] Cationic surfactants such as cetyltrimethylammonium bromide (CTAB) can be used to increase rates for chemical triggering of chemiluminescence from appropriately substituted dioxetanes in aqueous solution. […] The dioxetane is solubilized in the micelles formed by the surfactant and NaOH is added to initiate the chemiluminescence. […] Typically, the experiments were carried out with [2b]=9.1×10^-5 M, [CTAB]=2×10^-3 M, and [OH^- ]=9.1×10^-5 M at 37° C.
Similar experiments were conducted with the benzothiazamide surfactant 4. […] Enzymatic Triggering of Phosphate-Substituted Dioxetane 2c.

For series [6] the following is noted: cited from earlier work.
[7] abbreviates: thermal decomposition in xylene.
The mark [8] stands for this setting: base, CTAB 1.5×10^-3 M with fluorescein surfactant 3 (9×10^-5 M), 37° C.
[9] abbreviates: benzothiazamide surfactant 4 as co-surfactant, similar experiments with 2b/CTAB/base.

Where a name gives a salt, the structure may show the parent alone. Read-outs that look alike come from different tables or passages of the source.

For the compound `COC1(c2cccc(OP(=O)(O)O)c2)OOC12C1CC3CC(C1)CC2C3` (centres unmarked) [2c, 4-Methoxy-4-(3-phosphatephenyl)spiro[1,2-dioxetane-3,2'-adamantane], disodium salt], the “integrated light intensity vs amount of antigen” value in the series on S-antigen (1.3 to 112 ng S-antigen) is on record as “correlates with the amount of antigen coated on the well”. Also, the reagent background luminescence with S-antigen (2c 1.36×10^-4 M, CTAB and 3, pH 9.1, 37° C.) is 15 - 20 counts/sec. For the same compound, the “photographic detection, control well with buffer and dioxetane only” value in the series with S-antigen (ASA 3000 Polaroid film) is listed as “not visible”. For the same compound, in series [1] (10^-5 M 2c, 100 μL serum, 221 buffer pH 10.3, 37° C.), the “light intensity (constant level)” value is given as “approximately 2.3×10^4 counts/sec”. In series [1] (100 to 1 μL of serum), the “light intensity at the plateau vs enzyme concentration” value was “directly proportional to the enzyme concentration”. Besides, in series [1] (221 buffer pH 10.3, 37° C.), the “background luminescence signal from non-enzymatic hydrolysis, of enzyme-generated value” is “less than 0.05%”. Also, the Ea in series [2] (Arrhenius plot, o-xylene, 80° to 120° C.) is 32.5 kcal/mol; in series [2] (setting [7]) it was 32.5. Moreover, in series [2], the half-life is 6940 days. In series [2] (setting [7]), the “Log A” value was 14.9. Besides, the “k(sec^-1) at 25° C.” value in series [2] (setting [7]) came out at 1.19e-09 s⁻¹. Also, the period of chemiluminescence in series [3] (12 pg/mL protein, CTAB and 3, 37° C.) is 45 min. In addition, in series [3] (200 μL 221 buffer, CTAB and 3, enzyme purity of 10% assumed), the “detection of alkaline phosphatase” value was “less than 0.2 attomoles”. Besides, the chemiluminescence quantum yield in series [3] (221 buffer pH 9.1, 37° C., no CTAB) was 3.1×10^-5. Besides, the “period over which light intensity increases” value in series [3] (CTAB and fluorescer, depending on enzyme concentration) was 30 to 60 min. Also, in series [3] (buffer/co-micelle environment), the “background signal from non-enzymatic hydrolysis” value was “only a few”. In addition, the “chemiluminescence quantum yield (.PHI.Cl)” value in series [3] (with CTAB (1.13×10^-3 M)) is listed as 2.1×10^-4; in series [3] (with CTAB and fluorescein surfactant 3 (5.6×10^-5 M), pH 9.1, 37° C.) it was 0.015. Besides, in series [3] (with CTAB and fluorescein surfactant 3), the “increase compared to the enzymatic reaction in the absence of CTAB and 3” value is reported as 500 fold. This compound displayed a chemiluminescence efficiency in series [3] (with CTAB and fluorescein surfactant 3, pH 9.1, 37° C.) of 1.5%.
Take `COC1(c2cccc(O)c2)OOC12C1CC3CC(C1)CC2C3` (centres unmarked) [aryloxide-substituted dioxetane]: the half-life in series [4] came out at 5 s.
As for `COC1(c2cccc(OC(C)=O)c2)OOC12C1CC3CC(C1)CC2C3` (centres unmarked) [2b, 4-(3-Acetoxyphenyl)-4-methoxyspiro[1,2-dioxetane-3,2'-adamantane]], in series [5] (CTAB above cmc vs water, 37° C.), the “increase in the chemiluminescence quantum yield” value was 19 fold. Besides, the “chemiluminescence quantum yield (.PHI.CL)” value in series [5] (base in DMSO) was 0.25. Besides, the “light yield (chemiluminescence quantum yield)” value in series [5] (base in water) is recorded as 8.9×10^-6. Further, in series [5] (setting [8]), the chemiluminescence efficiency is listed as 1.4% and the “chemiluminescence quantum yield (.PHI.CL)” value was determined as 0.014. Moreover, in series [5] (base, CTAB above critical micelle concentration, 37° C.), the “chemiluminescence quantum yield (.PHI.Cl)” value is listed as 1.7×10^-4. In addition, the “increase over the luminescence in the absence of CTAB and 3” value in series [5] (base, CTAB with fluorescein surfactant 3, 37° C.) amounted to 500 fold. Moreover, in series [2], the half-life was 4750 days. For the same compound, in series [2] (setting [7]), the Ea was 30.4, the “Log A” value is 13.6 and the “k(sec^-1) at 25° C.” value worked out at 1.73e-09 s⁻¹.
With `Oc1ccc(C23OCCOC2(c2ccccc2)OO3)cc1` (centres unmarked) [hydroxy-substituted dioxetane (X=OH)], in series [6] (25° C.), the “half-life for decomposition at room temperature” value was 2.38 days. Further, the luminescence with base entry in series [6] (base at -30° C.) is on record as “a flash of blue light”. For the same compound, the luminescence upon heating result in series [6] (elevated temperatures) is “very low levels of luminescence”.
In series [5] (setting [9]), `CCCCCCCCCCCCCCCCNC(=O)c1nc2ccc(O)cc2s1` [compound 4, 1-Hexadecyl-6-hydroxy-2-benzothiazamide] had a chemiluminescence efficiency of 0.3% and a λmax of 506 nm.
Take `Oc1ccc(C23OCCOC2(c2ccccc2)OO3)cc1` (centres unmarked) [deprotonated dioxetane (X=O^-)]: the “decomposition rate relative to protonated form (X=OH)” value in series [6] (25° C.) is reported as 5.7×10^6 times.
